Consider one molecule from US8217172B2, “Solid forms of 1-ethyl-3-(5-(5-fluoropyridin-3-yl)-7-(pyrimidin-2-yl)-1H-benzo[d]imidazol-2-yl)urea” (Vertex Pharmaceuticals Incorporated, priority 2007, dated 2012).

Assay type in all cases: physicochemical
Data set [1] can be described thus: Stability analysis (chemical stability by HPLC, physical stability by XRPD). The conditions noted are these: 40° C./75% relative humidity. An excerpt: In some embodiments, less than 25% of the form of Compound 1 decomposes, in some embodiments, less than about 20%, less than about 15%, less than about 10%, less than about 5%, less than about 3%, less than about 1%, less than about 0.5% of the form of Compound 1 decomposes under the conditions specified. In some embodiments, no detectable amount of the form of Compound 1 decomposes.
In some embodiments, less than 25% of the form of Compound 1 changes into one or more different physical forms when subjected to specified conditions, In some embodiments, less than about 20%, less than about 15%, less than about 10%, less than about 5%, less than about 3%, less than about 1%, less than about 0.5% of the form of Compound 1 changes into one or more different physical forms of Compound 1 when subjected to specified conditions. In some embodiments, no detectable amount of the form of Compound 1 changes into one or more different physical forms of Compound 1.

The nature of data set [2]: Solubility in various media (equilibration on a shaking bed for 24 hours, HPLC). The conditions noted are these: at pH of about 4.4. How it is done: Solubility: The solubility of form IA in various media was determined at ambient conditions by equilibrating aliquots of the drug powder with the solvents on a shaking bed for 24 hours. The samples were centrifuged, the saturated solutions of the drug were then separated and analyzed by HPLC. The sample volume was 100 μL and the target concentration was 10 mg/mL. The saturated solutions were diluted appropriately and analyzed by HPLC.
Solubility: Solubility of form IIC in various media was determined at ambient conditions by equilibrating aliquots of the drug powder with the solvents on a shaking bed for 24 hours. Samples were spun and the supernatant was carefully separated and analyzed by HPLC at the 24-hour timepoint using a stability-indicating method. […] Some variability may occur between lots of a particular sample.
Solubility: Solubility of form IIIB in various media was determined at ambient conditions by equilibrating aliquots of the drug powder with the medium on a shaking bed for 24 hours. The samples were centrifuged, the saturated solutions of the drug were then separated and analyzed by HPLC. The sample volume was 100 μL, and the target concentration was 10 mg/ml. The saturated solutions were diluted appropriately and analyzed by HPLC.

Data set [3] can be described thus: Dynamic Vapor Sorption (DVS), step isothermal study. The following applies: step isothermic study (DVS), 25° C. As to the method:
Dynamic Vapor Sorption (DVS): A step isothermal study (25° C.) was conducted on a representative sample of form IA using a VTI SGA 100 Symmetric Vapor Sorption Analyzer. An aliquot of approximately 10 mg was weighed in an open platinum dish and exposed to different levels of humidity at 25° C. Relative humidity (RH) steps were from 5% to 95% (adsorption) and from 95% to 5% in increments of 5% RH (desorption). The equilibration criterion was 0.0100 wt % change in 5 min, with a max equilibration time of 180 min. The sample picked up ˜8 wt % moisture at 95% relative humidity (RH).
Dynamic Vapor Sorption (DVS): A step isothermal study (25° C.) was conducted on a sample of form IIA using a VTI SGA 100 Symmetric Vapor Sorption Analyzer. An aliquot of approximately 10 mg was weighed in an open platinum dish and exposed to different levels of humidity at 25° C. Relative humidity (RH) steps were from 5% to 95% (adsorption) and from 95% to 5% in increments of 5% RH (desorption). The equilibration criterion was 0.0100 wt % change in 5 min, with a max equilibration time of 180 min. The material picked up ˜11 wt % moisture at 95% relative humidity (RH).
Dynamic Vapor Sorption (DVS): A step isothermal study (25° C.) was conducted on a sample of form IIC using a VTI SGA 100 Symmetric Vapor Sorption Analyzer. An aliquot of approximately 10 mg was weighed in an open platinum dish and exposed to different levels of humidity at 25° C. Relative humidity (RH) steps were from 5% to 95% (adsorption) and from 95% to 5% in increments of 5% RH (desorption). The equilibration criterion was 0.0100 wt % change in 5 min, with a max equilibration time of 180 min. The material picked up ˜4 wt % moisture at 95% relative humidity (RH).
Water Vapor Sorption analysis: Vapor Sorption analysis of a sample of form IIIB was done using a SGA-100 Vapor Sorption Analyzer (VTI, Hialeah, Fla.). A sample with weight of approximately 7-12 mg was measured isothermally at 25° C. Data was collected by Isotherm software and analyzed by Microsoft Excel with a VTI macro (VTI, Hialeah, Fla.). The sample gained about 4.6% in weight from 5 to 95% RH (25° C.).

With `CCNC(=O)Nc1nc2cc(-c3cncc(F)c3)cc(-c3ncccn3)c2[nH]1.CS(=O)(=O)O` [crystalline1-ethyl-3-(5-(5-fluoropyridin-3-yl)-7-(pyrimidin-] [1-ethyl-3-(5-(5-fluoropyridin-3-yl)-7-(pyrimidin-2-yl)-1H-benzo[d]imidazol-2-yl)urea.monomesylate], in data set [1], the “remains chemically stable for at least” value is recorded as “at least 1 months” and the “remains in substantially the same physical form for at least” value is “at least 1 months”. For the same molecule, in data set [2], the solubility result is listed as “greater than 12 mg/ml”. Besides, in data set [3], the “weight gain from 5% to 95% relative humidity” value was 4.6%.
